Holding throughout (type): in vivo
Data set [1] deals with Echinochloa crus-galli (ECHCG). Kind of data set: Post-emergence herbicidal action against ECHCG. A digest of the protocol:
(§1)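 Doses of 320 g/ha or lower, suffixes a, b and c marking different dosages, were applied post-emergence at the one-leaf stage in 600 l/ha water with 0.5% additive. Damage was assessed visually after about 3 weeks in the greenhouse.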

The subject of data set [2] is Amaranthus retroflexus (AMARE). Put plainly: Post-emergence herbicidal action against AMARE. A digest of the protocol:
as §1

In data set [3] the test system is Zea mays (ZEAMX). The note with it: for Post-emergence action against ZEAMX in % (crop plant compatibility): 20 g/ha, effect in comparison to untreated controls; for Post-emergence action against ZEAMX in %: crop plant compatibility, 80 g/ha, effect vs untreated controls. A digest of the protocol:
(§2)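 Greenhouse crops in sandy loam sprayed post-emergence at the one-leaf stage, 2–3 weeks after sowing, with WP or EC formulations in water plus 0.5% additive at 600 l/ha. Damage rated visually about 3 weeks later versus untreated controls (0% = like control, 100% = dead); suffixes a–c denote different doses.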

Data set [4] relates to Viola tricolor (VIOTR). Put plainly: Post-emergence herbicidal action against VIOTR. A digest of the protocol: as §1
For data set [5], the system named is Polygonum convolvulus (POLCO). Kind of data set: Post-emergence herbicidal action against POLCO. The essentials:
as §1

Data set [6] deals with Verconica persica (VERPE). Kind of data set: Post-emergence herbicidal action against VERPE. A digest of the protocol:
as §1

Data set [7] deals with Abutilon theophrasti (ABUTH). Kind of data set: Post-emergence herbicidal action against ABUTH. Particulars: visual rating about 3 weeks after treatment vs untreated controls (100% = plants have died, 0% = like control plants). The essentials: as §1
Data set [8] relates to Setaria viridis (SETVI). Put plainly: Post-emergence herbicidal action against SETVI. The essentials:
as §1

Data set [9] concerns Pharbitis purpurea (PHBPU). Kind of data set: Post-emergence herbicidal action against PHBPU. The essentials:
as §1

In data set [10] the test system is Alopecurus myosuroides (ALOMY). Kind of data set: Post-emergence herbicidal action against ALOMY. The note with it: visual rating about 3 weeks after treatment vs untreated controls (100% = plants have died, 0% = like control plants). The essentials: as §1
For data set [11], the system named is Avena fatua (AVEFA). Put plainly: Post-emergence herbicidal action against AVEFA. The note with it: visual rating about 3 weeks after treatment. The essentials:
as §1

Data set [12] deals with Lolium rigidum (LOLRI). Put plainly: Post-emergence herbicidal action against LOLRI. The essentials:
as §1

Data set [13] concerns Digitaria sanguinalis (DIGSA). Kind of data set: Post-emergence herbicidal action against DIGSA. Particulars: visual rating about 3 weeks after treatment. How it is done: Seeds of monocotyledonous and dicotyledonous weeds and crop plants are placed in sandy loam in plastic or organic planting pots, covered with soil and cultivated in a greenhouse under controlled growth conditions. 2 to 3 weeks after sowing, the test plants are treated at the one-leaf stage. The compounds of the invention, formulated in the form of wettable powders (WP) or as emulsion concentrates (EC), are then sprayed onto the green parts of the plants as aqueous suspension or emulsion with addition of 0.5% additive at a water application rate of 600 l/ha (converted). After the test plants have been kept in the greenhouse under optimum growth conditions for about 3 weeks, the activity of the preparations is rated visually in comparison to untreated controls. For example, 100% activity=the plants have died, 0% activity=like control plants.
Tables B1 to B13 below show the effects of selected compounds of the general formula (I) according to Table 1 on various harmful plants and at an application rate corresponding to 320 g/ha or lower, which were obtained by the experimental procedure mentioned above. The appendices “a”, “b” and “c” give differentiation by dosage used with otherwise the same harmful plants tested.

The subject of data set [14] is Oryza sativa (ORYSA). The note with it: crop plant compatibility. A digest of the protocol: as §2
Setting [15] is: 80 g/ha, visual rating about 3 weeks after treatment vs untreated controls (100% = plants have died, 0% = like control plants).
Setting [16] is: 320 g/ha, visual rating about 3 weeks after treatment.
Setting [17] is: 20 g/ha, effect vs untreated controls.

Like-named read-outs stand apart in the source and are kept apart here.

Take `COC(=O)C(C)COC(=O)[C@@H](C)Oc1nn(-c2ccccn2)c(-c2ccc(F)nc2)c1Cl` (stereo partly shown) [Example I-267]: the “Post-emergence action against ECHCG in %” value in [1] (dosage 320 g/ha) stood at 90%. The “Post-emergence action against AMARE in %” value in data set [2] (setting [15]) and in data set [2] (setting [16]) was 80% throughout. Moreover, the “Post-emergence action against ZEAMX in % (crop plant compatibility)” value in data set [3] is listed as 0%. Further, in data set [3], the “Post-emergence action against ZEAMX in %” value was 20%. The “Post-emergence action against VIOTR in %” value in data set [4] (80 g/ha) and in data set [4] (320 g/ha) was 90% each time. For the same compound, the “Post-emergence action against POLCO in %” value in data set [5] (dosage 80 g/ha) and in [5] (dosage 320 g/ha) was 80% each time. Also, the “Post-emergence action against VERPE in %” value in [6] (320 g/ha, VERPE) is given as 90%; in data set [6] (dosage 80 g/ha), 90%. Further, the “Post-emergence action against ABUTH in %” value in data set [7] (80 g/ha) turned out to be 80%; in data set [7] (320 g/ha), 90%. Also, the “Post-emergence action against SETVI in %” value in [8] (dosage 80 g/ha) and in data set [8] (dosage 320 g/ha) was 90% in each case. Also, in data set [9] (dosage 320 g/ha), the “Post-emergence action against PHBPU in %” value came out at 90%. Moreover, the “Post-emergence action against ALOMY in %” value in data set [10] (320 g/ha) came out at 90%. In addition, the “Post-emergence action against AVEFA in %” value in [11] (80 g/ha) and in [11] (320 g/ha) was 90% throughout. Besides, the “Post-emergence action against LOLRI in %” value stood at 90% in data set [12] (dosage 80 g/ha) and 100% in data set [12] (dosage 320 g/ha). In data set [13] (320 g/ha), the “Post-emergence action against DIGSA in %” value came out at 90%.

For the compound `C[C@@H](Oc1nn(-c2ccccn2)c(-c2ccc(F)nc2)c1Br)C(=O)O` [Example I-260], the “Post-emergence action against ECHCG in %” value in data set [1] (dosage 320 g/ha) was found to be 90%. Besides, the “Post-emergence action against ORYSA in %” value was determined as 10% in [14] (setting [17]) and 10% in [14] (80 g/ha, effect in comparison to untreated controls). Further, the “Post-emergence action against POLCO in %” value in [5] (dosage 80 g/ha) and in data set [5] (dosage 320 g/ha) was 80% in each case. Further, the “Post-emergence action against VERPE in %” value in data set [6] (320 g/ha, VERPE) is recorded as 80%. For the same compound, the “Post-emergence action against ABUTH in %” value in data set [7] (320 g/ha) is recorded as 80%. Further, the “Post-emergence action against SETVI in %” value in data set [8] (dosage 320 g/ha) came to 90%. The “Post-emergence action against PHBPU in %” value in [9] (dosage 320 g/ha) is 80%. Moreover, in data set [10] (320 g/ha), the “Post-emergence action against ALOMY in %” value is listed as 90%. The “Post-emergence action against AVEFA in %” value in data set [11] (80 g/ha) and in data set [11] (320 g/ha) was 80% in each case. Also, the “Post-emergence action against LOLRI in %” value in data set [12] (dosage 320 g/ha) is given as 80%. The “Post-emergence action against DIGSA in %” value in data set [13] (80 g/ha) and in data set [13] (320 g/ha) was 90% each time.

Regarding `CC(C)OC(=O)COc1nn(-c2ncccc2F)c(-c2ccc(F)nc2)c1C1CC1` [Example I-328], the “Post-emergence action against ECHCG in %” value in [1] (dosage 80 g/ha) and in [1] (dosage 320 g/ha) was 90% in each case. Besides, the “Post-emergence action against AMARE in %” value in [2] (setting [15]) and in data set [2] (setting [16]) was 90% each time. In addition, in data set [14] (setting [17]), the “Post-emergence action against ORYSA in %” value is reported as 0%. For the same compound, in [3], the “Post-emergence action against ZEAMX in % (crop plant compatibility)” value stood at 0%. For the same compound, the “Post-emergence action against ZEAMX in %” value in data set [3] was 0%. Besides, the results for the “Post-emergence action against VIOTR in %” value in data set [4] (80 g/ha) and in data set [4] (320 g/ha) were 80% and 90%, respectively. Further, the “Post-emergence action against POLCO in %” value in data set [5] (dosage 80 g/ha) and in data set [5] (dosage 320 g/ha) was 90% in each case. In addition, the “Post-emergence action against VERPE in %” value in data set [6] (320 g/ha, VERPE) is 90%; in data set [6] (dosage 80 g/ha), 90%. Further, the “Post-emergence action against ABUTH in %” value in data set [7] (80 g/ha) and in [7] (320 g/ha) was 80% in each case. The “Post-emergence action against SETVI in %” value in data set [8] (dosage 80 g/ha) and in [8] (dosage 320 g/ha) was 90% in each case. The “Post-emergence action against PHBPU in %” value in [9] (dosage 80 g/ha) and in [9] (dosage 320 g/ha) was 90% each time. Moreover, the “Post-emergence action against ALOMY in %” value in data set [10] (80 g/ha) and in data set [10] (320 g/ha) was 90% in each case. In addition, the “Post-emergence action against AVEFA in %” value in data set [11] (80 g/ha) and in data set [11] (320 g/ha) was 90% throughout. Also, the “Post-emergence action against LOLRI in %” value in [12] (dosage 80 g/ha) and in data set [12] (dosage 320 g/ha) was 90% each time. Further, the “Post-emergence action against DIGSA in %” value in data set [13] (80 g/ha) and in [13] (320 g/ha) was 90% throughout.

Values taken from US20240041042A1, “1-(PYRIDYL)-5-AZINYLPYRAZOLE DERIVATIVES, AND THEIR USE FOR CONTROL OF UNDESIRED PLANT GROWTH” (Bayer Aktiengesellschaft, priority 2020, published 2024).
